Laboratory results taken from PubChem BioAssay (NCI).
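96-well plates; 48 h exposure; 5 concentrations. Endpoints by linear interpolation between flanking doses. Not reached: highest tested concentration assigned. Abbreviation: GI50, concentration required for 50% inhibition of growth. The concentration for full growth arrest is given as TGI.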

Assays:
Test in all cases: NCI-60 cell line screen, 48 h
[1] = system: 786-0 renal
[2] = system: A498 renal
[3] = system: A549 NSCLC
[4] = system: ACHN renal
[5] = system: BT-549 breast
[6] = system: CAKI-1 renal
[7] = system: CCRF-CEM leukemia
[8] = system: COLO 205 colon
[9] = system: DU-145 prostate
[10] = system: EKVX NSCLC
[11] = system: HCC-2998 colon
[12] = system: HCT-116 colon
[13] = system: HCT-15 colon
[14] = system: HL-60(TB) leukemia
[15] = system: HOP-62 NSCLC
[16] = system: HOP-92 NSCLC
[17] = system: HS 578T breast
[18] = system: HT29 colon
[19] = system: IGROV1 ovarian
[20] = system: K-562 leukemia
[21] = system: KM12 colon
[22] = system: LOX IMVI melanoma
[23] = system: M14 melanoma
[24] = system: MALME-3M melanoma
[25] = system: MCF7 breast
[26] = system: MDA-MB-231 breast
[27] = system: MDA-MB-435
[28] = system: MOLT-4 leukemia
[29] = system: NCI-H226 lung
[30] = system: NCI-H460 lung
[31] = system: NCI-H522 lung
[32] = system: NCI/ADR-RES ovarian
[33] = system: OVCAR-3 ovarian
[34] = system: OVCAR-4 ovarian
[35] = system: OVCAR-5 ovarian
[36] = system: OVCAR-8 ovarian
[37] = system: PC-3 prostate
[38] = system: RPMI-8226 leukemia
[39] = system: RXF 393 renal
[40] = system: SF-268 CNS
[41] = system: SF-295 CNS
[42] = system: SF-539 CNS
[43] = system: SK-MEL-2 melanoma
[44] = system: SK-MEL-28 melanoma
[45] = system: SK-MEL-5 melanoma
[46] = system: SK-OV-3 ovarian
[47] = system: SN12C renal
[48] = system: SNB-19 CNS
[49] = system: SNB-75 CNS
[50] = system: SR leukemia
[51] = system: SW-620 colon
[52] = system: T-47D breast
[53] = system: TK-10 renal
[54] = system: U251 CNS
[55] = system: UACC-257 melanoma
[56] = system: UACC-62 melanoma
[57] = system: UO-31 renal

In the case of `NS(=O)(=O)c1cccc(Nc2nc(SCC(=O)c3ccc([N+](=O)[O-])cc3)nc3ccccc23)c1`, the GI50 [1] is reported as 48.5 µM, the TGI [1] is reported as greater than 100 µM and the GI50 [2] is reported as 38.4 µM. The TGI [2] was greater than 100 µM, the GI50 [3] was 32 µM and the TGI [3] was greater than 100 µM. It also gave a GI50 [4] of 30.6 µM, a TGI [4] greater than 100 µM and a GI50 [5] of 11.3 µM. For the same compound, the TGI [5] was 51.5 µM, the GI50 [6] was 32.1 µM and the TGI [6] was greater than 100 µM. The GI50 [7] was 20.3 µM, the TGI [7] was greater than 100 µM and the GI50 [8] was 40.3 µM. It also gave a TGI [8] greater than 100 µM, a GI50 [9] of 28.7 µM and a TGI [9] greater than 100 µM. It also gave a GI50 [10] of 32.9 µM, a TGI [10] greater than 100 µM and a GI50 [11] of 31.7 µM. It also gave a TGI [11] greater than 100 µM, a GI50 [12] of 31.3 µM and a TGI [12] greater than 100 µM. For the same compound, the GI50 [13] was 38.7 µM, the TGI [13] was greater than 100 µM and the GI50 [14] was 22.2 µM. For the same compound, the TGI [14] was 64.3 µM, the GI50 [15] was 28.8 µM and the TGI [15] was greater than 100 µM. For the same compound, the GI50 [16] was 14 µM, the TGI [16] was greater than 100 µM and the GI50 [17] was 35.2 µM. For the same compound, the TGI [17] was greater than 100 µM, the GI50 [18] was 38.8 µM and the TGI [18] was greater than 100 µM. It also gave a GI50 [19] of 24 µM, a TGI [19] greater than 100 µM and a GI50 [20] of 23.6 µM. For the same compound, the TGI [20] was greater than 100 µM, the GI50 [21] was 37.6 µM and the TGI [21] was greater than 100 µM. The GI50 [22] was 31.4 µM, the TGI [22] was greater than 100 µM and the GI50 [23] was 31.6 µM. The TGI [23] was greater than 100 µM, the GI50 [24] was 44.5 µM and the TGI [24] was greater than 100 µM. The GI50 [25] was 12.4 µM, the TGI [25] was greater than 100 µM and the GI50 [26] was greater than 100 µM. It also gave a TGI [26] greater than 100 µM, a GI50 [27] of 44.9 µM and a TGI [27] greater than 100 µM. For the same compound, the GI50 [28] was 12.9 µM, the TGI [28] was 45.1 µM and the GI50 [29] was 21.2 µM. The TGI [29] was 70.8 µM, the GI50 [30] was 26.2 µM and the TGI [30] was greater than 100 µM. For the same compound, the GI50 [31] was 20.1 µM, the TGI [31] was 89.6 µM and the GI50 [32] was greater than 100 µM. The TGI [32] was greater than 100 µM, the GI50 [33] was 19.6 µM and the TGI [33] was 72.9 µM. It also gave a GI50 [34] of 26.6 µM, a TGI [34] greater than 100 µM and a GI50 [35] greater than 100 µM. It also gave a TGI [35] greater than 100 µM, a GI50 [36] of 25.3 µM and a TGI [36] greater than 100 µM. For the same compound, the GI50 [37] was 20.2 µM, the TGI [37] was greater than 100 µM and the GI50 [38] was 16.1 µM. For the same compound, the TGI [38] was 83 µM, the GI50 [39] was 23.2 µM and the TGI [39] was greater than 100 µM. It also gave a GI50 [40] of 43.7 µM, a TGI [40] greater than 100 µM and a GI50 [41] of 38.3 µM. It also gave a TGI [41] greater than 100 µM, a GI50 [42] of 31.3 µM and a TGI [42] greater than 100 µM. It also gave a GI50 [43] of 14.4 µM, a TGI [43] of 44 µM and a GI50 [44] of 34.9 µM. The TGI [44] was greater than 100 µM, the GI50 [45] was 22.3 µM and the TGI [45] was 88.1 µM. For the same compound, the GI50 [46] was 63.2 µM, the TGI [46] was greater than 100 µM and the GI50 [47] was 40.9 µM. It also gave a TGI [47] greater than 100 µM, a GI50 [48] greater than 100 µM and a TGI [48] greater than 100 µM. It also gave a GI50 [49] greater than 100 µM, a TGI [49] greater than 100 µM and a GI50 [50] of 21.1 µM. The TGI [50] was greater than 100 µM, the GI50 [51] was 64.2 µM and the TGI [51] was greater than 100 µM. For the same compound, the GI50 [52] was 9.95 µM, the TGI [52] was 65.4 µM and the GI50 [53] was 54.5 µM. For the same compound, the TGI [53] was greater than 100 µM, the GI50 [54] was 58.2 µM and the TGI [54] was greater than 100 µM. The GI50 [55] was 30.1 µM, the TGI [55] was greater than 100 µM and the GI50 [56] was 16.3 µM. The TGI [56] was 37.3 µM, the GI50 [57] was 32.6 µM and the TGI [57] was greater than 100 µM.
